Experimental data published in ChEMBL document CHEMBL3044631, “Synthesis of 2-[4,5-dimethyl-1-(phenylamino)-1H-imidazol-2-ylthio]-N-(thiazole-2-yl)acetamide derivatives and their anticancer activities” (2013).

What was measured:
Assay type in all cases: functional
[1] = tested on: UO-31; experiment: Anticancer activity against Homo sapiens (human) UO31 cells assessed as cell growth promotion at 10 uM after 48 hr by SRB assay
[2] = tested on: HL-60(TB); experiment: Anticancer activity against Homo sapiens (human) HL-60(TB) cells assessed as cell growth promotion at 10 uM after 48 hr by SRB assay
[3] = tested on: SF-539; experiment: Anticancer activity against Homo sapiens (human) SF539 cells assessed as cell growth promotion at 10 uM after 48 hr by SRB assay
[4] = tested on: UACC-257; experiment: Anticancer activity against Homo sapiens (human) UACC257 cells assessed as cell growth promotion at 10 uM after 48 hr by SRB assay
[5] = tested on: LOX IMVI; experiment: Anticancer activity against Homo sapiens (human) LOXIMVI cells assessed as cell growth promotion at 10 uM after 48 hr by SRB assay
[6] = tested on: MDA-MB-435; experiment: Anticancer activity against Homo sapiens (human) MDA-MB-435 cells assessed as cell growth promotion at 10 uM after 48 hr by SRB assay
[7] = tested on: K562; experiment: Anticancer activity against Homo sapiens (human) K562 cells assessed as cell growth promotion at 10 uM after 48 hr by SRB assay
[8] = tested on: T47D; experiment: Anticancer activity against Homo sapiens (human) T47D cells assessed as cell growth promotion at 10 uM after 48 hr by SRB assay
[9] = tested on: ACHN; experiment: Anticancer activity against Homo sapiens (human) ACHN cells assessed as cell growth promotion at 10 uM after 48 hr by SRB assay
[10] = tested on: SK-OV-3; experiment: Anticancer activity against Homo sapiens (human) SKOV3 cells assessed as cell growth promotion at 10 uM after 48 hr by SRB assay
[11] = tested on: Hs-578T; experiment: Anticancer activity against Homo sapiens (human) Hs 578T cells assessed as cell growth promotion at 10 uM after 48 hr by SRB assay
[12] = tested on: BT-549; experiment: Anticancer activity against Homo sapiens (human) BT549 cells assessed as cell growth promotion at 10 uM after 48 hr by SRB assay
[13] = tested on: NCI/ADR-RES; experiment: Anticancer activity against Homo sapiens (human) NCI/ADR-RES cells assessed as cell growth promotion at 10 uM after 48 hr by SRB assay
[14] = tested on: NCI-H522; experiment: Anticancer activity against Homo sapiens (human) NCI-H522 cells assessed as cell growth promotion at 10 uM after 48 hr by SRB assay
[15] = tested on: M14; experiment: Anticancer activity against Homo sapiens (human) M14 cells assessed as cell growth promotion at 10 uM after 48 hr by SRB assay
[16] = tested on: SW-620; experiment: Anticancer activity against Homo sapiens (human) SW620 cells assessed as cell growth promotion at 10 uM after 48 hr by SRB assay
[17] = tested on: MDA-MB-231; experiment: Anticancer activity against Homo sapiens (human) MDA-MB-231/ATCC cells assessed as cell growth promotion at 10 uM after 48 hr by SRB assay
[18] = tested on: PC-3; experiment: Anticancer activity against Homo sapiens (human) PC3 cells assessed as cell growth promotion at 10 uM after 48 hr by SRB assay
[19] = tested on: TK-10; experiment: Anticancer activity against Homo sapiens (human) TK10 cells assessed as cell growth promotion at 10 uM after 48 hr by SRB assay
[20] = tested on: HT-29; experiment: Anticancer activity against Homo sapiens (human) HT-29 cells assessed as cell growth promotion at 10 uM after 48 hr by SRB assay
[21] = tested on: HOP-92; experiment: Anticancer activity against Homo sapiens (human) HOP92 cells assessed as cell growth promotion at 10 uM after 48 hr by SRB assay
[22] = tested on: IGROV-1; experiment: Anticancer activity against Homo sapiens (human) IGROV1 cells assessed as cell growth promotion at 10 uM after 48 hr by SRB assay
[23] = tested on: HCC 2998; experiment: Anticancer activity against Homo sapiens (human) HCC2998 cells assessed as cell growth promotion at 10 uM after 48 hr by SRB assay
[24] = tested on: MCF7; experiment: Anticancer activity against Homo sapiens (human) MCF7 cells assessed as cell growth promotion at 10 uM after 48 hr by SRB assay
[25] = tested on: MOLT-4; experiment: Anticancer activity against Homo sapiens (human) MOLT4 cells assessed as cell growth promotion at 10 uM after 48 hr by SRB assay
[26] = tested on: MDA-MB-468; experiment: Anticancer activity against Homo sapiens (human) MDA-MB-468 cells assessed as cell growth promotion at 10 uM after 48 hr by SRB assay
[27] = tested on: COLO 205; experiment: Anticancer activity against Homo sapiens (human) COLO205 cells assessed as cell growth promotion at 10 uM after 48 hr by SRB assay
[28] = tested on: RXF 393; experiment: Anticancer activity against Homo sapiens (human) RXF393 cells assessed as cell growth promotion at 10 uM after 48 hr by SRB assay
[29] = tested on: OVCAR-4; experiment: Anticancer activity against Homo sapiens (human) OVCAR4 cells assessed as cell growth promotion at 10 uM after 48 hr by SRB assay
[30] = tested on: SK-MEL-2; experiment: Anticancer activity against Homo sapiens (human) SK-MEL-2 cells assessed as cell growth promotion at 10 uM after 48 hr by SRB assay
[31] = tested on: OVCAR-5; experiment: Anticancer activity against Homo sapiens (human) OVCAR5 cells assessed as cell growth promotion at 10 uM after 48 hr by SRB assay
[32] = tested on: SNB-75; experiment: Anticancer activity against Homo sapiens (human) SNB75 cells assessed as cell growth promotion at 10 uM after 48 hr by SRB assay
[33] = tested on: HOP-62; experiment: Anticancer activity against Homo sapiens (human) HOP62 cells assessed as cell growth promotion at 10 uM after 48 hr by SRB assay
[34] = tested on: Malme-3M; experiment: Anticancer activity against Homo sapiens (human) MALME-3M cells assessed as cell growth promotion at 10 uM after 48 hr by SRB assay
[35] = tested on: NCI-H322M; experiment: Anticancer activity against Homo sapiens (human) NCI-H322M cells assessed as cell growth promotion at 10 uM after 48 hr by SRB assay
[36] = tested on: NCI-H226; experiment: Anticancer activity against Homo sapiens (human) NCI-H226 cells assessed as cell growth promotion at 10 uM after 48 hr by SRB assay
[37] = tested on: SNB-19; experiment: Anticancer activity against Homo sapiens (human) SNB19 cells assessed as cell growth promotion at 10 uM after 48 hr by SRB assay
[38] = tested on: DU-145; experiment: Anticancer activity against Homo sapiens (human) DU145 cells assessed as cell growth promotion at 10 uM after 48 hr by SRB assay
[39] = tested on: SF-295; experiment: Anticancer activity against Homo sapiens (human) SF295 cells assessed as cell growth promotion at 10 uM after 48 hr by SRB assay
[40] = tested on: SR; experiment: Anticancer activity against Homo sapiens (human) SR cells assessed as cell growth promotion at 10 uM after 48 hr by SRB assay

Row | Structure (SMILES) | Activity [1] [%] | Activity [2] [%] | Activity [3] [%] | Activity [4] [%] | Activity [5] [%] | Activity [6] [%] | Activity [7] [%] | Activity [8] [%] | Activity [9] [%] | Activity [10] [%] | Activity [11] [%] | Activity [12] [%] | Activity [13] [%] | Activity [14] [%] | Activity [15] [%] | Activity [16] [%] | Activity [17] [%] | Activity [18] [%] | Activity [19] [%] | Activity [20] [%] | also measured
1 | CCOC(=O)c1csc(NC(=O)CSc2nc(C)c(C)n2Nc2ccc(C)cc2)n1 | 62.65 | 77.24 | 73.62 | 88.46 | 77.98 | 78.21 | 78.51 | 57.89 | 76.52 | 90.71 | 139.32 | 91.44 | 70.04 | 76.3 | 70.97 | 98.75 | 62.5 | 88.3 | 77.84 | 52.44 | Activity [21]: 44.51%; Activity [22]: 95.15%; Activity [23]: 96.72%; Activity [24]: 80.14%; Activity [25]: 92.25%; Activity [26]: 67.17%; Activity [27]: 80.51%; Activity [28]: 38.47%; Activity [29]: 74.76%; Activity [30]: 93.46%; Activity [31]: 74.57%; Activity [32]: 83.76%; Activity [33]: 63.23%; Activity [34]: 110.81%; Activity [35]: 97.18%; Activity [36]: 70.72%; Activity [37]: 75.4%; Activity [38]: 108.96%; Activity [39]: 53.71%; Activity [40]: 87.01%
2 | COc1ccc(Nn2c(SCC(=O)Nc3nccs3)nc(C)c2C)cc1 | 86.71 | 98.86 | 101.05 | 108.29 | 105.4 | 97.68 | 99.68 | 94.87 | 100.51 | 108.56 | 109.7 | 105.55 | 92.35 | 95.16 | 107.71 | 113.7 | 105.41 | 103.43 | 105.37 | 102.36 | Activity [21]: 117.01%; Activity [22]: 102.01%; Activity [23]: 110.49%; Activity [24]: 102.31%; Activity [25]: 100.89%; Activity [26]: 94.85%; Activity [27]: 107.27%; Activity [28]: 126.87%; Activity [29]: 110.54%; Activity [30]: 92.7%; Activity [31]: 89.33%; Activity [32]: 100.22%; Activity [33]: 106.4%; Activity [34]: 119.7%; Activity [35]: 110.58%; Activity [36]: 105.15%; Activity [37]: 109.69%; Activity [38]: 112.49%; Activity [39]: 91.49%; Activity [40]: 104%
